Results: publication PMC5681660, “Reduced hepatitis B and D viral entry using clinically applied drugs as novel inhibitors of the bile acid transporter NTCP” (Scientific Reports, 2017)
Where a name gives a salt, the structure may show the parent alone. Read-outs that look alike come from different tables or passages of the source.

Key:
[1] = molecular target: T1, human NTCP (Homo sapiens, UniProt Q14973); test: Screening taurocholate uptake assay (96-well, [14C]taurocholate, 10 µM drug)
T1 sequence (Q14973 1-349): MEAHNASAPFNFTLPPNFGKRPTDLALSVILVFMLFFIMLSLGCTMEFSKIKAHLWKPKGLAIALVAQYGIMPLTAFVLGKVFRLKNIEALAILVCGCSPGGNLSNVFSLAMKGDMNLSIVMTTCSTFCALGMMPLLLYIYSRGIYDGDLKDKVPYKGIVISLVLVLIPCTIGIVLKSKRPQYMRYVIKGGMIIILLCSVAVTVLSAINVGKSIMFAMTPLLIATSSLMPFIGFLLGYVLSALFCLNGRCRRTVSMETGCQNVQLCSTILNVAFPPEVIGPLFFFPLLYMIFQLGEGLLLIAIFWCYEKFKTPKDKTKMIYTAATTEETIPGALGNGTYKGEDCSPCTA

[2] = molecular target: T1, human NTCP; test: Screening fluorescent competitive Myrcludex B-FITC binding assay (96-well, 10 µM drug); conditions: 10 µM drug
[3] = Prestwick library screen, taurocholate uptake, 10 µM drug
[4] = ranking score beside the functional and binding assay B-scores of the screen
[5] = Prestwick library screen, Myrcludex B-FITC binding
[6] = Prestwick library screen, 10 µM drug, B-score of taurocholate uptake
[7] = combined ranking from functional and binding assay B-scores
[8] = Prestwick library screen, B-score of Myrcludex B-FITC binding
[9] = combined ranking from functional and binding screening assays
[10] = screen, 10 µM drug, taurocholate uptake
[11] = screen, Myrcludex B-FITC binding

Row | Structure (SMILES) | B-score functional assay [1, 3] | Ranking score [1, 4] | B-score binding assay [2, 5] | B-score functional assay [1, 6] | Ranking score [1, 7] | B-score binding assay [2, 8] | also measured
1 | CC1NC(=O)NC1=O (stereo not drawn) [Methylhydantoin-5-(L)] | 0.737 | 746.749 | -0.07 | – | – | – | –
2 | C[C@H]1C[C@@H]2[C@H]([C@@H](O)C[C@@]3(C)[C@H]2CC[C@]3(O)C(=O)CO)[C@@]2(C)C=CC(=O)C=C12 [Methylprednisolone, 6-alpha] | – | – | – | 0.477 | 941.018 | 0.779 | –
3 | Cc1cc2c(cc1S(N)(=O)=O)S(=O)(=O)CCC2 [Meticrane] | – | – | – | 3.166 | 878.911 | -0.016 | –
4 | Cc1ccccc1N1C(=O)c2cc(S(N)(=O)=O)c(Cl)cc2NC1C (stereo not drawn) [Metolazone] | – | – | – | 0.67 | 1031.7 | 1.32 | –
5 | CC(=O)Nc1c(I)c(C(=O)N[C@H]2C(O)O[C@H](CO)[C@@H](O)[C@@H]2O)c(I)c(N(C)C(C)=O)c1I (stereo partly drawn) [Metrizamide] | 0.395 | 816.081 | 0.138 | – | – | – | –
6 | Cc1ncc([N+](=O)[O-])n1CCO [Metronidazole] | – | – | – | 1.996 | 878.042 | 0 | –
7 | CC(C)(C(=O)c1cccnc1)c1cccnc1 [Metyrapone] | 0.78 | 759.235 | -0.063 | – | – | – | –
8 | C[C@@]1(O)CCOC(=O)C1 [Mevalonic-D, L acid lactone] | – | – | – | 0.673 | 868.822 | 0.161 | –
9 | CC[C@H](C)C(=O)O[C@H]1CCC=C2C=C[C@H](C)[C@H](CC[C@@H]3C[C@@H](O)CC(=O)O3)[C@H]21 [Mevastatin] | – | – | – | – | – | – | Ranking score [1, 9]: 355.331; B-score functional assay [1, 10]: -2.175; B-score binding assay [2, 11]: 1.164
10 | COc1ccc(OC)c(C(O)CNC(=O)CN)c1 (stereo not drawn) [Midodrine hydrochloride] | -0.28 | 735.356 | 2.033 | – | – | – | –
11 | CCN(CC)C(=O)C1(c2ccccc2)CC1CN.Cl (stereo not drawn) [Milnacipran hydrochloride] | – | – | – | 1.822 | 955.465 | 0.152 | –
12 | Cc1[nH]c(=O)c(C#N)cc1-c1ccncc1 [Milrinone] | – | – | – | 0.094 | 877.639 | 0.945 | –
13 | CN(C)c1ccc(O)c2c1C[C@H]1C[C@H]3[C@H](N(C)C)C(O)=C(C(N)=O)C(=O)[C@@]3(O)C(O)=C1C2=O [Minocycline hydrochloride] | – | 838.821 | 0.626 | – | – | – | B-score functional assay [1]: 0.089
14 | Clc1ccc(C(c2ccccc2Cl)C(Cl)Cl)cc1 (stereo not drawn) [Mitotane] | – | – | – | – | – | – | Ranking score [1, 9]: 352.681; B-score functional assay [1, 10]: -2.371; B-score binding assay [2, 11]: 2.009
15 | O=C1c2c(O)ccc(O)c2C(=O)c2c(NCCNCCO)ccc(NCCNCCO)c21 [Mitoxantrone dihydrochloride] | 4.449 | 807.326 | -0.161 | – | – | – | –
16 | CCc1c(C)[nH]c2c1C(=O)C(CN1CCOCC1)CC2 (stereo not drawn) [Molindone hydrochloride] | – | – | – | – | – | – | Ranking score [1, 9]: 412.337; B-score functional assay [1, 10]: -0.958; B-score binding assay [2, 11]: 0.009
17 | Cc1ccsc1/C=C/C1=NCCCN1C [Morantel tartrate] | – | – | – | – | – | – | Ranking score [1, 9]: 381; B-score functional assay [1, 10]: -0.483; B-score binding assay [2, 11]: -0.484

Continued, in another order:

Row | B-score functional assay [1, 3] | Ranking score [1, 4] | B-score binding assay [2, 5] | B-score functional assay [1, 6] | Ranking score [1, 7] | B-score binding assay [2, 8] | Structure (SMILES) | also measured
18 | 0.041 | 825.955 | 0.761 | – | – | – | CN1CCN2c3ccccc3Cc3ccccc3C2C1.Cl (stereo not drawn) [Mianserine hydrochloride] | –
19 | 1.278 | 814.509 | -0.039 | – | – | – | Cc1cc(-c2ccccc2)nnc1NCCN1CCOCC1 [Minaprine dihydrochloride] | –
20 | – | – | – | 0.906 | 877.518 | 0.089 | CN(c1nccc(=O)[nH]1)C1CCN(c2nc3ccccc3n2Cc2ccc(F)cc2)CC1 [Mizolastine] | –
21 | 1.399 | 766.363 | -0.149 | – | – | – | O=C(NCCN1CCOCC1)c1ccc(Cl)cc1 [Moclobemide] | –
22 | – | – | – | 1.373 | 1132.99 | 1.496 | Cl.N=C(N=C(N)N)N1CCOCC1 [Moroxidine hydrochloride] | –
